Data published in US20230001083A1, “ACTUATABLE DEVICE FOR PULSATILE DRUG DELIVERY” (Massachusetts Institute of Technology, priority 2019, published 2023).
Like-named read-outs stand apart in the source and are kept apart here.

Key:
[1] = Stability of drug formulation stored in the pump at 37° C.; format: physicochemical; details: stored in the pump at 37° C. for 4 weeks
[2] = In vivo pharmacokinetics of lisinopril, pump versus subcutaneous injection; details: for Cmax: plasma, read-out: maximum plasma concentration (Cmax)
Procedure: The time taken to reach the Cmax (Tmax) was 30 min in both groups. […] Drug leakage in the implanted pump was not detected during the non-actuation periods over a 28-day period.

In the case of `CC(C)C[C@H]1C(=O)N2CCC[C@H]2[C@]2(O)O[C@](NC(=O)[C@@H]3C=C4c5cccc6[nH]c(Br)c(c56)C[C@H]4N(C)C3)(C(C)C)C(=O)N12` [bromocriptine], the “stability of formulation in the pump” value [1] is reported as “stable without apparent denaturation”.

For `NCCCC[C@H](N[C@@H](CCc1ccccc1)C(=O)O)C(=O)N1CCC[C@H]1C(=O)O` [lisinopril], the Cmax ([2]; other: implanted pump, Pump-lisinopril group) was 394 ± 83.2 ng/mL, the Cmax ([2]; sc, Inj-lisinopril group (subcutaneous injection)) was 323 ± 64.7 ng/mL and the “area under the curve of plasma lisinopril concentration versus time (AUC)” value ([2]; pump group) was 25335.5 ± 7640.9 ng·min/mL. The “area under the curve of plasma lisinopril concentration versus time (AUC)” value ([2]; subcutaneous injection group) was 24484.5 ± 5643.8 ng·min/mL.
